Results from patent US20080096894A1, “Anti-Bacterial Compounds” (ASTON UNIVERSITY, priority 2005, published 2008).
≈ marks a conversion by molar mass, not a printed value. Like-named read-outs stand apart in the source and are kept apart here.

How the values were obtained:
Test in all cases: MIC, agar dilution, multipoint inoculator
MRSA = format: cell-based, methicillin-resistant Staphylococcus aureus; settings: Staphylococcus aureus
How it was run: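 Agar dilution MIC on Mueller Hinton agar, multipoint inoculator delivering 10^4 colony forming units per spot. MRSA values are ranges across ten clinical MRSA strains; S. aureus NCTC 6571 as reference strain.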

E. faecium = format: cell-based, Enterococcus faecium; settings: Enterococcus faecium, upper value of MIC reading, read-out: MIC
How it was run: (§1)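 Minimum inhibitory concentrations come from an agar dilution method using Mueller Hinton medium. Inocula of 10^4 colony forming units per spot were applied with a multipoint inoculator.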

E. faecalis = format: cell-based; settings: Enterococcus faecalis, upper value of MIC reading, read-out: MIC
How it was run: as §1

S. haemolyticus = format: cell-based; settings: Staphylococcus haemolyticus, 18 h; S. haemolyticus Isolate 1; upper value of MIC reading; read-out: MIC
How it was run: as §1

SMILES: CC(C)(C)c1cc(/C=N/N=C(\N)c2ccncc2)c(O)c(C(C)(C)C)c1 [Compound 4PYcq]
- MIC (MRSA; 18 h, MRSA Isolate 1, upper value of MIC reading, read-out: MIC): 4 µg/mL (≈ 11.3 µM)
- MIC (MRSA; 18 h, MRSA Isolate 2, upper value of MIC reading, read-out: MIC): 4 µg/mL (≈ 11.3 µM)
- MIC (MRSA; 18 h, MRSA Isolate 3, upper value of MIC reading, read-out: MIC): 4 µg/mL (≈ 11.3 µM)
- MIC (MRSA; 18 h, MRSA Isolate 4, upper value of MIC reading, read-out: MIC): 4 µg/mL (≈ 11.3 µM)
- MIC (MRSA; 18 h, MRSA Isolate 5, upper value of MIC reading, read-out: MIC): 4 µg/mL (≈ 11.3 µM)
- MIC (MRSA; 18 h, MRSA Isolate 6, upper value of MIC reading, read-out: MIC): 4 µg/mL (≈ 11.3 µM)
- MIC (MRSA; 18 h, MRSA Isolate 7, upper value of MIC reading, read-out: MIC): 4 µg/mL (≈ 11.3 µM)
- MIC (MRSA; 18 h, MRSA Isolate 8, upper value of MIC reading, read-out: MIC): 4 µg/mL (≈ 11.3 µM)
- MIC (MRSA; 18 h, MRSA Isolate 9, upper value of MIC reading, read-out: MIC): 4 µg/mL (≈ 11.3 µM)
- MIC (MRSA; 18 h, MRSA Isolate 10, upper value of MIC reading, read-out: MIC): 4 µg/mL (≈ 11.3 µM)
- MIC (MRSA; MRSA, 18 h, panel of ten MRSA strains (clinical isolates), read-out: MRSA MIC range): 2 to 4 µg/mL (≈ 5.67 to 11.3 µM)
- MIC (MRSA; MRSA, the MRSA strains which were tested, read-out: MIC): 2 to 4 µg/mL (≈ 5.67 to 11.3 µM)
- MIC (E. faecium; 18 h, E. faecium ACTCC 10541): 4 µg/mL (≈ 11.3 µM)
- MIC (E. faecium; NCTC7171, 18 h, E. faecium NCTC 7171): 4 µg/mL (≈ 11.3 µM)
- MIC (E. faecalis; 18 h, E. faecalis EBH1): 4 µg/mL (≈ 11.3 µM)
- MIC (E. faecalis; 18 h, E. faecalis Isolate 1): 4 µg/mL (≈ 11.3 µM)
- MIC (E. faecalis; 18 h, E. faecalis Isolate 2): 4 µg/mL (≈ 11.3 µM)
- MIC (E. faecalis; 18 h, E. faecalis Isolate 4): 4 µg/mL (≈ 11.3 µM)
- MIC (E. faecalis; 18 h, E. faecalis Isolate 5): 4 µg/mL (≈ 11.3 µM)
- MIC (E. faecalis; NCTC5957, 18 h, E. faecalis NCTC 5957): 4 µg/mL (≈ 11.3 µM)
- MIC (S. haemolyticus): 4 µg/mL (≈ 11.3 µM)
